Data on eight compounds can be found in ChEMBL document CHEMBL5465560, “Selectivity Literature for EUbOPEN Chemogenomic Library” (2024).

The target in assay [1] is T1, Serine/threonine-protein kinase LATS2 (Homo sapiens) (UniProt Q9NRM7).
T1 sequence (whole entry): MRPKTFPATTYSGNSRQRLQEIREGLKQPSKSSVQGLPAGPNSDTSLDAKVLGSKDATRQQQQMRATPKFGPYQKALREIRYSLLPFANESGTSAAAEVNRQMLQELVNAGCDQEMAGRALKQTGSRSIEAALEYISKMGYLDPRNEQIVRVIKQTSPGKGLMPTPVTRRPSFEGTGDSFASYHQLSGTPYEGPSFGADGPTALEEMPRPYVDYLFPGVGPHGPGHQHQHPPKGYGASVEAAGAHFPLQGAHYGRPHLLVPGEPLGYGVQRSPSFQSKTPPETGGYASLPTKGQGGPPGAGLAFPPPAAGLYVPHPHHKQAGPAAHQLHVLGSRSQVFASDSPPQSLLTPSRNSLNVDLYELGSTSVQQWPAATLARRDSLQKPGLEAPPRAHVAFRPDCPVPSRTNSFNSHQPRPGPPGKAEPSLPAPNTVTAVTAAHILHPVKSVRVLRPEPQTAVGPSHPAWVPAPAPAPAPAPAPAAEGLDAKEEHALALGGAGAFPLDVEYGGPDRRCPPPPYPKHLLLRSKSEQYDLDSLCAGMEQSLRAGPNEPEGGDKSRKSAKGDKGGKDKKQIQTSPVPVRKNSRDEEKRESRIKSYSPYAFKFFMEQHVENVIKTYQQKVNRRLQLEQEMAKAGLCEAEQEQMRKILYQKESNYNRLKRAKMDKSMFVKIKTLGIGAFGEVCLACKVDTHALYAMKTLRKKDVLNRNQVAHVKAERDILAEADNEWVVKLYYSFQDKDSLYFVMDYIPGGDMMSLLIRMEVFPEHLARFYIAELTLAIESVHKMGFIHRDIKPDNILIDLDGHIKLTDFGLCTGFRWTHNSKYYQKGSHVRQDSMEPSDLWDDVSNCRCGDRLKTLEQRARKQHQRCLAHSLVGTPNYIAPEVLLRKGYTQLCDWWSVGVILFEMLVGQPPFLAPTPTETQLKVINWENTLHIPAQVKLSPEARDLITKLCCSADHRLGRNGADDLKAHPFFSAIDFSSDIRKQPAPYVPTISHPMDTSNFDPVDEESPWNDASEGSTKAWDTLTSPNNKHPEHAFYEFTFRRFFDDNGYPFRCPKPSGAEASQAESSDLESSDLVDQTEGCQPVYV
Kind of assay: Selectivity interaction (KinomeScan (DiscoverX)) EUB0001079a LATS2. Particulars: at 1 µM.

For assay [2], the target named is Mitogen-activated protein kinase 4 (Homo sapiens) (UniProt P31152). Kind of assay: Selectivity interaction (KinomeScan (DiscoverX)) EUB0001619a MAPK4. Particulars: at 1 µM.
Sequence of Mitogen-activated protein kinase 4 (Homo sapiens) (P31152 whole entry): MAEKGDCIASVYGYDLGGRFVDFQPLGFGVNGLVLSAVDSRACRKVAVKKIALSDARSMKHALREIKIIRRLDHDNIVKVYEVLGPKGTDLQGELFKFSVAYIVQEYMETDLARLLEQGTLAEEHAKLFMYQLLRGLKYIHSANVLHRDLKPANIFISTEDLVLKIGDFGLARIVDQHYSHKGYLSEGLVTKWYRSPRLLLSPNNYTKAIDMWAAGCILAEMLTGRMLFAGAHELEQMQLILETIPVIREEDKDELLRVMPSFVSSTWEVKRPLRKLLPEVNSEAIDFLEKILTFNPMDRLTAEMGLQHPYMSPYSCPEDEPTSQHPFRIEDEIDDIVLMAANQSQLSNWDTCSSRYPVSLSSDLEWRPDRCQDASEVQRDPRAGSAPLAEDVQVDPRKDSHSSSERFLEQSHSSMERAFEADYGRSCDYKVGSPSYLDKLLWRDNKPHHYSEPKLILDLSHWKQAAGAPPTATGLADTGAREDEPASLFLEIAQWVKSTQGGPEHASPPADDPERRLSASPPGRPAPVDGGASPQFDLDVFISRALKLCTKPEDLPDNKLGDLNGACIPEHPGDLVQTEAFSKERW
Assay [3] concerns the target Tyrosine-protein kinase Fgr (Homo sapiens) (UniProt P09769). Kind of assay: Selectivity interaction (ActivX KiNativ screen (ex vivo kinase selectivity in human PBMCs)) EUB0001619a FGR. In kind it is cell-based. Particulars: PBMC, at 1 µM.
For assay [4], the target named is Prostaglandin G/H synthase 2 (Homo sapiens, UniProt P35354). Kind of assay: Selectivity interaction (COX-2 assay, human recombinant ) EUB0000877a PTGS2.
For assay [5], the target named is Serine/threonine-protein kinase PLK2 (Homo sapiens, UniProt Q9NYY3). The assay can be described thus: Selectivity interaction (Kinase panel (Invitrogen)) EUB0000639a PLK2. Particulars: at 200 nM.
For assay [6], the target named is Mitogen-activated protein kinase kinase kinase 9 (Homo sapiens) (UniProt P80192). Particulars: at 10 µM.
Assay [7] has as its target T2, Serine/threonine-protein kinase D3 (Homo sapiens) (UniProt O94806).
T2 sequence (whole entry): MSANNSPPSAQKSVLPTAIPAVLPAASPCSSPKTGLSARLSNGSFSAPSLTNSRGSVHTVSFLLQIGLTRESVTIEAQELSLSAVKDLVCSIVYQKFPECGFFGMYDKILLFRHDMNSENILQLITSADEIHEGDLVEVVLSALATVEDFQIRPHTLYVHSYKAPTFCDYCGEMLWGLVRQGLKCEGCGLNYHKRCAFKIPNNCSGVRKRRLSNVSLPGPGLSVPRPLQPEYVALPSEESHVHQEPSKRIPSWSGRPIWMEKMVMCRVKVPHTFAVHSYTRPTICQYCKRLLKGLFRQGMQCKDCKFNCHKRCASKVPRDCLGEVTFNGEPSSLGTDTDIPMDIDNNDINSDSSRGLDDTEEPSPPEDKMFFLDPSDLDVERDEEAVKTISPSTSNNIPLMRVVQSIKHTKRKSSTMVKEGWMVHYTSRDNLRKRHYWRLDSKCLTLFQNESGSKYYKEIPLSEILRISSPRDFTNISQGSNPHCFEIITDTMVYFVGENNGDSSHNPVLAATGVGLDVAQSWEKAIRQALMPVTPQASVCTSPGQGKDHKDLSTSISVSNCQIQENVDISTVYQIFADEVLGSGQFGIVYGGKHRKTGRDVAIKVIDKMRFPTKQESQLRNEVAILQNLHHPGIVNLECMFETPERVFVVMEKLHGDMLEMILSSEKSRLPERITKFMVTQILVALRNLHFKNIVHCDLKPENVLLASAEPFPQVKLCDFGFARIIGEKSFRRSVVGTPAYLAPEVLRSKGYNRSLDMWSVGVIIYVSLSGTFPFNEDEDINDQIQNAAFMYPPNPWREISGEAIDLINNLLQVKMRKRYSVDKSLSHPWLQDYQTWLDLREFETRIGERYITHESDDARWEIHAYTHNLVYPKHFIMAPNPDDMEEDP
The assay can be described thus: Selectivity interaction (KinomeScan (DiscoverX)) EUB0001049a PRKD3. Particulars: at 1 µM.

The target of assay [8] is Calcium/calmodulin-dependent protein kinase type II subunit alpha (Homo sapiens, UniProt Q9UQM7). Kind of assay: Selectivity interaction (KinomeScan (DiscoverX)) EUB0001049a CAMK2A. Particulars: at 1 µM.
Sequence of Calcium/calmodulin-dependent protein kinase type II subunit alpha (Q9UQM7 whole entry): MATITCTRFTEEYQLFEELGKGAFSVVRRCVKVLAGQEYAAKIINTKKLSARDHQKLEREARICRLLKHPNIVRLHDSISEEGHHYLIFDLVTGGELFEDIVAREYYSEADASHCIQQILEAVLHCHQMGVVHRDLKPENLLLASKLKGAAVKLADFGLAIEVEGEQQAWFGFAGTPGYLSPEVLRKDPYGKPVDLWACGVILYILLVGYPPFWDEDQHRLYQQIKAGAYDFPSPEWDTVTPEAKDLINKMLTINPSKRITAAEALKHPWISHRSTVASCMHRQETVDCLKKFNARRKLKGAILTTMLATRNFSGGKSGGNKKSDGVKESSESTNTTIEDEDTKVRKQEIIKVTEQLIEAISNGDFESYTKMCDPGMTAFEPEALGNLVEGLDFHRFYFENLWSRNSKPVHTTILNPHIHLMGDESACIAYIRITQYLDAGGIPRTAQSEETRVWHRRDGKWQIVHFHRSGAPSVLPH
For assay [9], the target named is Serine/threonine-protein kinase WNK2 (Homo sapiens) (UniProt Q9Y3S1). The assay can be described thus: Selectivity interaction (ProQinase) EUB0000171b WNK2.
Sequence of Serine/threonine-protein kinase WNK2 (Homo sapiens) (Q9Y3S1 whole entry): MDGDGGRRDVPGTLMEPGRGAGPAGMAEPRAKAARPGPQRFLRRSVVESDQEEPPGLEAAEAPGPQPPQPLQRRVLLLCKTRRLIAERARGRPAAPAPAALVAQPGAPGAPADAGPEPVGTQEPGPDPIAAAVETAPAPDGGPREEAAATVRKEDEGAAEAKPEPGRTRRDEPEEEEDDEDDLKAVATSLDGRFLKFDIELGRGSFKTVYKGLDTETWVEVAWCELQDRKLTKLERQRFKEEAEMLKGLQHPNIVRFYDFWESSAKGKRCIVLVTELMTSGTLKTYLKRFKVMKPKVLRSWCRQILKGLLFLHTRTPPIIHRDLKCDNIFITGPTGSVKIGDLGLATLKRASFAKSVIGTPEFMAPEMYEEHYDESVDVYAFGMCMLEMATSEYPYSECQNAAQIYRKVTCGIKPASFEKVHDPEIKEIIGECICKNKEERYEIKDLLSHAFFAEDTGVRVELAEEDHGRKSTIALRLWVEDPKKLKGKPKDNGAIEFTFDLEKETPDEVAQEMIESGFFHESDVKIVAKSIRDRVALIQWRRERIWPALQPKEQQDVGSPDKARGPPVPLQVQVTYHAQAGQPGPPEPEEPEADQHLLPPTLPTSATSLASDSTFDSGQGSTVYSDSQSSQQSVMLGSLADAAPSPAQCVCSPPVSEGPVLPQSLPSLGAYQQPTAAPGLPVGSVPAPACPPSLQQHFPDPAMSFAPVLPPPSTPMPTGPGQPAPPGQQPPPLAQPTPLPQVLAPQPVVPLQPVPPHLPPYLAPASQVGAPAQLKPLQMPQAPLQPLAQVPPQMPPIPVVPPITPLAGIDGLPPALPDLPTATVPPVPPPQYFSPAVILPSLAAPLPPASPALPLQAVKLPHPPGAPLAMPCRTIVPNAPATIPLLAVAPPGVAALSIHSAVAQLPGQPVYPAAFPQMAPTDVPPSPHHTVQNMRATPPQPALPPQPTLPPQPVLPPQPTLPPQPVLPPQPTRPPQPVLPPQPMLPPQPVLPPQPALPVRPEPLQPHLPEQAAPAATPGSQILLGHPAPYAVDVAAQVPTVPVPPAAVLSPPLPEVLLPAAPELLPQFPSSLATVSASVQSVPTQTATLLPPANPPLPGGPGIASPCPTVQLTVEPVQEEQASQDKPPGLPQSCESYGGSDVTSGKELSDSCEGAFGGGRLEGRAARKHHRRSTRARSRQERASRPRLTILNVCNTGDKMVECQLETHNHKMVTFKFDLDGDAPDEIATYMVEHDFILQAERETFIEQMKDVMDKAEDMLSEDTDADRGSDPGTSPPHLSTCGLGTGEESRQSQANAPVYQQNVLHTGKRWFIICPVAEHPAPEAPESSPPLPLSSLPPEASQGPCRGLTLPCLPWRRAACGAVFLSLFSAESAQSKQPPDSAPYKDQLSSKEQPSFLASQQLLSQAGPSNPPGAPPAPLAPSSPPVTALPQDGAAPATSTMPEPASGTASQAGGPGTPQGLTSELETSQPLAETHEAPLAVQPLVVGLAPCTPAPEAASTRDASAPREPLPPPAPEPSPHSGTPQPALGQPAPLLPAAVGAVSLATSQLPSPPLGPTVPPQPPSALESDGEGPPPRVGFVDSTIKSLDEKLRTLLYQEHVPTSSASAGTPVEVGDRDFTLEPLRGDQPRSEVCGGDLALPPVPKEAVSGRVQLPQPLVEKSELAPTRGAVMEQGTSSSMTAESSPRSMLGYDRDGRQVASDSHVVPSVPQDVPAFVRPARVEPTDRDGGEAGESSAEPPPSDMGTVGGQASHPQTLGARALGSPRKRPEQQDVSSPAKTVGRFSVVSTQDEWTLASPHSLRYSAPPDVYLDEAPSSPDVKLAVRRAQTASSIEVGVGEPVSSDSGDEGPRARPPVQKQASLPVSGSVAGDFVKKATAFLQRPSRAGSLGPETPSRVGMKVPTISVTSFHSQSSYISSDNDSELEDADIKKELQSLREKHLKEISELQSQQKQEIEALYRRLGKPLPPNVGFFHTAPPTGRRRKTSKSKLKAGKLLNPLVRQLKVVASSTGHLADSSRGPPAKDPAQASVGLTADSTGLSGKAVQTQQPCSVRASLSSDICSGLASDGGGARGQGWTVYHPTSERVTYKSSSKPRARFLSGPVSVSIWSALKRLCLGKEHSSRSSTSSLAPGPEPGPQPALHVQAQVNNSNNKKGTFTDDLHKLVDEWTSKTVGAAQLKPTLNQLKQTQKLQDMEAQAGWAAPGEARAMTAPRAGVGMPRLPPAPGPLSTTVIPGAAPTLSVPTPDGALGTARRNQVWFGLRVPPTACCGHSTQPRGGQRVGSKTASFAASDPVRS
Assay [10] concerns the target SWI/SNF-related matrix-associated actin-dependent regulator of chromatin subfamily A member 2 (Homo sapiens, UniProt P51531). The assay can be described thus: Selectivity interaction (Human bromodomain panel (DSF assay)) EUB0000233b SMARCA2. (In general: DSF heats the sample and reads unfolding from a dye or from intrinsic fluorescence.)

A word on the IC50: it is the point on the concentration scale where inhibition reaches its midpoint.

Sequence of SWI/SNF-related matrix-associated actin-dependent regulator of chromatin subfamily A member 2 (P51531 whole entry): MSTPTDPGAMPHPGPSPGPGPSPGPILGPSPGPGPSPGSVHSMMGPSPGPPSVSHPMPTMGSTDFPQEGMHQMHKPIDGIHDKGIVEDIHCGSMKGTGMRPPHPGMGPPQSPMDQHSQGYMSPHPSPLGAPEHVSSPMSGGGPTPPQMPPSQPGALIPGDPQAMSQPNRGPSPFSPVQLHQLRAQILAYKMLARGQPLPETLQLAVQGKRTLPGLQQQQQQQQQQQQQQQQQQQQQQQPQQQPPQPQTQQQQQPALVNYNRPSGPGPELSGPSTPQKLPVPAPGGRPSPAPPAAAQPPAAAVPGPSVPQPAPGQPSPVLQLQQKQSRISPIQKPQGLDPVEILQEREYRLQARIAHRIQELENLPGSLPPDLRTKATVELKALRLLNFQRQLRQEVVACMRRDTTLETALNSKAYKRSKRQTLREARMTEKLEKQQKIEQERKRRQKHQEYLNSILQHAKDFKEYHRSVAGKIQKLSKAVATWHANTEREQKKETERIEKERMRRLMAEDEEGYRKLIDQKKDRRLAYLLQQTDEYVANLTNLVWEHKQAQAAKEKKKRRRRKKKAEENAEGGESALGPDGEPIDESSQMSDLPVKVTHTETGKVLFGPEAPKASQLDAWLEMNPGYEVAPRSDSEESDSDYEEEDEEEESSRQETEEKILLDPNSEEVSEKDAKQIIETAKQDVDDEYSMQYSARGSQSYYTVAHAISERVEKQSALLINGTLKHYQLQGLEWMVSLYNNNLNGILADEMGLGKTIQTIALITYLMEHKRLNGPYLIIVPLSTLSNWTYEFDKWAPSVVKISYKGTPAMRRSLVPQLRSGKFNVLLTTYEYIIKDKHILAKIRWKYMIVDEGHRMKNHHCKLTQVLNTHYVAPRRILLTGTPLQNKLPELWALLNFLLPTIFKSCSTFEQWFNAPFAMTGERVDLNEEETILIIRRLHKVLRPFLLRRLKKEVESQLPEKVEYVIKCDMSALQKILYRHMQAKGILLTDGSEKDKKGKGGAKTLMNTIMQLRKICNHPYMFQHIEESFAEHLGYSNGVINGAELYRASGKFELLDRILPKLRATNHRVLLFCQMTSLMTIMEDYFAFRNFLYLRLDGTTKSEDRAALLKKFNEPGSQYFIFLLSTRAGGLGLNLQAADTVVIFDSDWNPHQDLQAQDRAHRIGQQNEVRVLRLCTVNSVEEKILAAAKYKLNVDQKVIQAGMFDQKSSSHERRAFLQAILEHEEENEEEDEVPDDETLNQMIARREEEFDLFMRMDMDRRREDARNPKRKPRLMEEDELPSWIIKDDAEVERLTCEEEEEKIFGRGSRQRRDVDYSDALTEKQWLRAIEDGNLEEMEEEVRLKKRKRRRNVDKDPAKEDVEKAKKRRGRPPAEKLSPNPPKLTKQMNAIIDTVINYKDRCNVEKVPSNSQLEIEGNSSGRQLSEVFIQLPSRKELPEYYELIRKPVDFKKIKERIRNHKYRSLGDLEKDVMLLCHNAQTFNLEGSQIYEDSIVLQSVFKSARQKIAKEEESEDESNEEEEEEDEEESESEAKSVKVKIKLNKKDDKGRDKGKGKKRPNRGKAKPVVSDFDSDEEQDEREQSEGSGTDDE

Compound `Nc1cnc(N2CCc3cc(S(=O)(=O)Nc4c(F)cc(Cl)cc4F)cc(N4CCCC4=O)c32)nc1` [TP-020n] gave a % of control in assay [1] of 100%.

`N#Cc1cccc(-c2c[nH]c3ncnc(N4CCOCC4)c23)c1` yielded a % of control in assay [2] of 95%. This compound also came in with a % of inhibition in assay [3] of 2%.

On to `CCC(=O)N1CC[C@H](Nc2ncnc3c2CN(c2cnc(OC)c(C(F)(F)F)c2)CC3)C1` [LENIOLISIB], for which, in assay [4], the IC50 is greater than 30 µM.

`CC[C@@H]1[C@H](F)C(=O)N[C@@H]1COc1nccc2cc(C(N)=O)c(OC)cc12` [ZIMLOVISERTIB] yielded a % of inhibition in assay [5] of 5.58%.

Turning to `CCN(CC)CCCCNc1ncc2cc(-c3cc(OC)cc(OC)c3)c(NC(=O)NC(C)(C)C)nc2n1`, the % of control in assay [6] turned out to be 100%.

`COc1cc(Nc2nc(C)cc(-c3cnn4nc(OC)ccc34)n2)cc(C(F)(F)F)c1`: the % of control in assay [7] came out at 100%; in assay [8] it was 85%.

In the case of `C=CC(=O)Nc1cccc(C(=O)Nc2ccc(Nc3cc(-c4[nH]c(SC)nc4C)ccn3)cc2)c1`, the values for the % of control in [9] (at 1 µM) and in assay [9] (at 5 µM) were 98% and 78%, respectively.

Regarding `CN(C)CCCOc1ccc(-c2cc(NCCCn3cccn3)nc(S(C)(=O)=O)n2)cc1`, the dTM in assay [10] is less than 2 K.
